Source: ChEMBL document CHEMBL5465560, “Selectivity Literature for EUbOPEN Chemogenomic Library” (2024)

Assays:
[1] = molecular target: T1, Mitogen-activated protein kinase kinase kinase 3 (Homo sapiens) (UniProt Q99759); experiment: Selectivity interaction (KinomeScan (DiscoverX)) EUB0001079a MAP3K3; conditions: at 1 µM
T1 sequence (whole entry): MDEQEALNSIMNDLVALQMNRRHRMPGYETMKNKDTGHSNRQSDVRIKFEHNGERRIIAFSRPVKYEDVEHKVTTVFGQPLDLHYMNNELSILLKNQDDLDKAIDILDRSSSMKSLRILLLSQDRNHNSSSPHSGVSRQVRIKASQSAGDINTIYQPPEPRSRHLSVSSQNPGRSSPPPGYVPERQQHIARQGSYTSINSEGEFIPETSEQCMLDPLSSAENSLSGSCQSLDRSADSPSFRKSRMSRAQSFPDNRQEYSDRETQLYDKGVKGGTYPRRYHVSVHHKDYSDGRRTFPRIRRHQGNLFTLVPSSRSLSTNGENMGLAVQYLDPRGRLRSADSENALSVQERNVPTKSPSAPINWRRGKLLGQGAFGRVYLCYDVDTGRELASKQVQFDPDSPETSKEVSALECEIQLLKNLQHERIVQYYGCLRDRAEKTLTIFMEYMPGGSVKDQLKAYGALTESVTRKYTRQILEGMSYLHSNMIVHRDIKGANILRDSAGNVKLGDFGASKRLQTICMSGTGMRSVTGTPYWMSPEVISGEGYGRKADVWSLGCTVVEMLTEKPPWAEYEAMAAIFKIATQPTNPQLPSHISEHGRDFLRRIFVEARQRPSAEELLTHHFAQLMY

[2] = molecular target: T2, Serine/threonine-protein kinase tousled-like 1 (Homo sapiens) (UniProt Q9UKI8); experiment: Selectivity interaction (ActivX KiNativ screen (kinase selectivity in THP-1 cell lysates)) EUB0000639a TLK1; format: subcellular; conditions: lysate, at 0.04 µM
T2 sequence (whole entry): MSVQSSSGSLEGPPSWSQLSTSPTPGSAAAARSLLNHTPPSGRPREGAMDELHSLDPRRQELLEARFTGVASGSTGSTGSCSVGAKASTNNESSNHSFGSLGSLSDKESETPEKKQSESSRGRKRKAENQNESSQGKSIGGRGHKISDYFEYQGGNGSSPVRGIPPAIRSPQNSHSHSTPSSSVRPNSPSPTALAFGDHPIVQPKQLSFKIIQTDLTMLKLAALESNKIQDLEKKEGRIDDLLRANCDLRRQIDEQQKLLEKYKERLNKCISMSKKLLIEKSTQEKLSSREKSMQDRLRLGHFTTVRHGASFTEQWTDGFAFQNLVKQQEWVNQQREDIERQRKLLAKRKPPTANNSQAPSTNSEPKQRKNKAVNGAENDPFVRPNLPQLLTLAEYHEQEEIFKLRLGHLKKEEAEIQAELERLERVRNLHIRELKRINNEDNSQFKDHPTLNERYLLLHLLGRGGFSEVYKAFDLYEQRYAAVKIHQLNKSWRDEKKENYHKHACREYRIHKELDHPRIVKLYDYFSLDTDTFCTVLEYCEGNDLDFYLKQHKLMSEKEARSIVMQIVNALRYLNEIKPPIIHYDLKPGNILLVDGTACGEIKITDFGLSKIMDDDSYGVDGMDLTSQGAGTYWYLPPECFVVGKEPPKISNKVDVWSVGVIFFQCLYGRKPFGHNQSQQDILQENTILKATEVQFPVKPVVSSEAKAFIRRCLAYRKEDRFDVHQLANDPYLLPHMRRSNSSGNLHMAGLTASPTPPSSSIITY

[3] = molecular target: T3, Serine/threonine-protein kinase DCLK1 (Homo sapiens) (UniProt O15075); conditions: at 10 µM
T3 sequence (whole entry): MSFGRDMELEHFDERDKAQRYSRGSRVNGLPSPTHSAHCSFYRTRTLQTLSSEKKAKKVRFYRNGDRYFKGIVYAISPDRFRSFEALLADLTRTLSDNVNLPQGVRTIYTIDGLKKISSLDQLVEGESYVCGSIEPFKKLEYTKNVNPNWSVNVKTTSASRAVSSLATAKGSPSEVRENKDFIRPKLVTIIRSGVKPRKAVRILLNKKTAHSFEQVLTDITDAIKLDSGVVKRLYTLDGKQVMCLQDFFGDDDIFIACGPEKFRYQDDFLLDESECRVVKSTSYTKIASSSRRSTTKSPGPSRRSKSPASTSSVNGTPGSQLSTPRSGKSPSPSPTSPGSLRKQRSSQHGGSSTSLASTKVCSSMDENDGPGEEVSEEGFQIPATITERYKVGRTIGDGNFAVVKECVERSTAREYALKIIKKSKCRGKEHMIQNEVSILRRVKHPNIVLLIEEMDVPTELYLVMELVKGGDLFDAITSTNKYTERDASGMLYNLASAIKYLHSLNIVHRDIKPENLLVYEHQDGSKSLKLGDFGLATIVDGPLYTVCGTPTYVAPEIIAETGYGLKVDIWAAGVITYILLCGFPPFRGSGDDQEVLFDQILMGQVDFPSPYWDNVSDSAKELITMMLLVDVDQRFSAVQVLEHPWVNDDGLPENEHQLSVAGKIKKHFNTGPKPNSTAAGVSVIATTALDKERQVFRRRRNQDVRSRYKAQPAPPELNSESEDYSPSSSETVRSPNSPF

Question: For Nc1cnc(N2CCc3cc(S(=O)(=O)Nc4c(F)cc(Cl)cc4F)cc(N4CCCC4=O)c32)nc1 [TP-020n], which % of control [1] is on record?
Answer: Its % of control is 97%.

Question: CC[C@@H]1[C@H](F)C(=O)N[C@@H]1COc1nccc2cc(C(N)=O)c(OC)cc12 [ZIMLOVISERTIB] was tested. Which % of inhibition [2] did it give?
Answer: Its % of inhibition is -7.3%.

Question: Which % of control [3] does the source give for Cc1cc([C@@H](C)Nc2ccccc2C(=O)O)c2nc(N3CCOCC3)cc(=O)n2c1 [AZD-6482] here?
Answer: Its % of control is 78%.
